According to patent US11267824B2, “Inhibitors of indoleamine 2,3-dioxygenase and/or tryptophan 2,3-dioxygenase” (IDORSIA PHARMACEUTICALS LTD, priority 2017, dated 2022):

Assays:
[1] = target: Recombinant human TDO comprising amino acids 19-407 (Homo sapiens (Human), UniProt P48775); assay: TDO2 enzymatic assay (TDO inhibitory activity); type: biochemical; conditions: 15 nM enzyme, 200 μM L-tryptophan, pH7, 30 min pre-incubation, NFK quantified by LCMS; mean values if measured multiple times; read-out: hTDO activity (IC50 in nM)
How it was run: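 His-tagged enzyme (15 nM, E. coli-expressed) in pH 7 phosphate buffer with ascorbate, catalase, BSA, Tween 20, 0.6% DMSO; 30 min RT pre-incubation with compound (10 μM–0.5 nM), then 200 μM L-tryptophan for 30 min RT. N′-formylkynurenine quantified by LCMS against deuterated tryptophan; IC50 by four-parameter fit, duplicates.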

[2] = target: Recombinant full-length human IDO1 (Homo sapiens (Human), UniProt P14902); assay: IDO1 enzymatic assay (IDO inhibitory activity); type: biochemical; conditions: 2 nM enzyme, 5 μM L-tryptophan, pH6.5, 30 min pre-incubation, NFK quantified by LCMS; mean values if measured multiple times; read-out: hIDO activity (IC50 in nM)
How it was run: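 N-His-tagged enzyme from E. coli at 2 nM in 37.5 mM phosphate pH6.5 with ascorbate, methylene blue, catalase; compounds 10 μM–0.5 nM, 0.6% DMSO, pre-incubated 30 min RT, then 5 μM L-tryptophan for 30 min RT. NFK quantified by LCMS against d5-tryptophan; IC50 from duplicate four-parameter fit, means where repeated.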

Recombinant full-length human IDO1, sequence (P14902 whole entry): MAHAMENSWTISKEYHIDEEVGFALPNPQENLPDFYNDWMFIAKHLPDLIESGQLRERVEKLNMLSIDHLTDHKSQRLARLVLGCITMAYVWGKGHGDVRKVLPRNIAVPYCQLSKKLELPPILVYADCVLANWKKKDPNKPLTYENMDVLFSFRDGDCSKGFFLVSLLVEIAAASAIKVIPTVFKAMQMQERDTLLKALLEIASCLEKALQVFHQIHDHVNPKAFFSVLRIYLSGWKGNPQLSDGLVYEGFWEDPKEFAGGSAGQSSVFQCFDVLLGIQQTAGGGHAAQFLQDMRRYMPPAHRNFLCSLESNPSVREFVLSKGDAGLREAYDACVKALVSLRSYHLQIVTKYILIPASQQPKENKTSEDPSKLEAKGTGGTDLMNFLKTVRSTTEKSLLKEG
Recombinant human TDO comprising amino acids 19-407, sequence (P48775 19-406 limits assumed): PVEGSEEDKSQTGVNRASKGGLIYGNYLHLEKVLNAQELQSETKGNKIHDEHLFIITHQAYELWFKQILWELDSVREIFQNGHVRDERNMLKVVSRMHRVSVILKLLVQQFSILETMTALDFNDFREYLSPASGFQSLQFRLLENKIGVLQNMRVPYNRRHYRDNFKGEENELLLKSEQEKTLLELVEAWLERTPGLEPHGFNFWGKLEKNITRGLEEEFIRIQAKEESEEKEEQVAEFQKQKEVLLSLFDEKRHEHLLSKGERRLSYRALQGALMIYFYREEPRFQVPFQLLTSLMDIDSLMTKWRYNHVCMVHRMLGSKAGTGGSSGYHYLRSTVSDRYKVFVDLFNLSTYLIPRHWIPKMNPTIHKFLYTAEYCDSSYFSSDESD

| Structure (SMILES) | IC50 [1] [nM] | IC50 [2] [nM] |
| --- | --- | --- |
| O[C@H](c1c(-c2ccccc2)sc2cncn12)C1CCCCC1 [Example 92a, (S)-Cyclohexyl-(2-phenyl-imidazo[5,1-b]thiazol-3-yl)-methanol] | 171 | 242 |
| CCc1sc2cncn2c1[C@@H](O)C1CCCCC1 [Example 96a, (S)-Cyclohexyl-(2-ethyl-imidazo[5,1-b]thiazol-3-yl)-methanol] | 20 | 5.32 |
| C=Cc1sc2cncn2c1C(O)CC1CCCCC1 (stereo not drawn) [Example 97, 2-Cyclohexyl-1-(2-vinyl-imidazo[5,1-b]thiazol-3-yl)-ethanol] | 62.6 | 10.5 |
| CCc1sc2cncn2c1[C@@H](O)CC1CCCCC1 [Example 100a, (S)-2-Cyclohexyl-1-(2-ethyl-imidazo[5,1-b]thiazol-3-yl)-ethanol] | 202 | 7.82 |
| CCc1sc2cncn2c1[C@H](O)CC1CCCCC1 [Example 100b, (R)-2-Cyclohexyl-1-(2-ethyl-imidazo[5,1-b]thiazol-3-yl)-ethanol] | 9950 | 1190 |
| OC(CC1CCC2CCCCC2C1)c1c(C2CC2)sc2cncn12 (stereo not drawn) [Example 101, 1-(2-Cyclopropyl-imidazo[5,1-b]thiazol-3-yl)-2-(decahydro-naphthalen-2-yl)-ethanol] | 1790 | 485 |
| OC(CC1CCCC(C(F)(F)F)C1)c1c(C2CC2)sc2cncn12 (stereo not drawn) [Example 102, 1-(2-Cyclopropyl-imidazo[5,1-b]thiazol-3-yl)-2-(3-trifluoromethyl-cyclohexyl)-ethanol] | 818 | 87.6 |
| OC(c1c(C2CC2)sc2cncn12)C1CCCC(C(F)(F)F)C1 (stereo not drawn) [Example 104, (2-Cyclopropyl-imidazo[5,1-b]thiazol-3-yl)-(3-trifluoromethyl-cyclohexyl)-methanol] | 1080 | 75.7 |
| CC1(C)CCCC(CC(O)c2c(C3CC3)sc3cncn23)C1 (stereo not drawn) [Example 106, 1-(2-Cyclopropyl-imidazo[5,1-b]thiazol-3-yl)-2-(3,3-dimethyl-cyclohexyl)-ethanol] | 546 | 85.1 |
| Cc1sc2cncn2c1C(O)CC1CCC(c2ccccc2)C1 (stereo not drawn) [Example 107, 1-(2-Methyl-imidazo[5,1-b]thiazol-3-yl)-2-(3-phenyl-cyclopentyl)-ethanol] | 1890 | 167 |
| CC1(C)CCC(C(O)c2c(C(F)(F)F)sc3cncn23)C1 (stereo not drawn) [Example 108, (3,3-Dimethyl-cyclopentyl)-(2-trifluoromethyl-imidazo[5,1-b]thiazol-3-yl)-methanol] | 922 | 56.7 |
| OC(CC1CCC(c2ccccc2)C1)c1c(C(F)(F)F)sc2cncn12 (stereo not drawn) [Example 112, 2-(3-Phenyl-cyclopentyl)-1-(2-trifluoromethyl-imidazo[5,1-b]thiazol-3-yl)-ethanol] | > 10200 | 666 |
| COC1CCCC(CC(O)c2c(C3CC3)sc3cncn23)C1 (stereo not drawn) [Example 114, 1-(2-Cyclopropyl-imidazo[5,1-b]thiazol-3-yl)-2-(3-methoxy-cyclohexyl)-ethanol] | 1830 | 40.5 |
| CC1CCC(C(O)c2c(C(F)(F)F)sc3cncn23)C1 (stereo not drawn) [Example 116, (3-Methyl-cyclopentyl)-(2-trifluoromethyl-imidazo[5,1-b]thiazol-3-yl)-methanol] | 701 | 45.5 |
| CC1CCCCC1CC(O)c1c(C(F)(F)F)sc2cncn12 (stereo not drawn) [Example 117, 2-(2-Methyl-cyclohexyl)-1-(2-trifluoromethyl-imidazo[5,1-b]thiazol-3-yl)-ethanol] | 2680 | 165 |
| CC1CCCC1C(O)c1c(C(F)(F)F)sc2cncn12 (stereo not drawn) [Example 119, (2-Methyl-cyclopentyl)-(2-trifluoromethyl-imidazo[5,1-b]thiazol-3-yl)-methanol] | 187 | 191 |
| CC1CC(C)(C)CC1C(O)c1c(C2CC2)sc2cncn12 (stereo not drawn) [Example 120, (2-Cyclopropyl-imidazo[5,1-b]thiazol-3-yl)-(2,4,4-trimethyl-cyclopentyl)-methanol] | 247 | 172 |
| CC1(C)CCC(CC(O)c2c(C(F)(F)F)sc3cncn23)C1 (stereo not drawn) [Example 121, 2-(3,3-Dimethyl-cyclopentyl)-1-(2-trifluoromethyl-imidazo[5,1-b]thiazol-3-yl)-ethanol] | 8490 | 313 |
| CC1CCCC(CC(O)c2c(C(F)(F)F)sc3cncn23)C1 (stereo not drawn) [Example 122, 2-(3-Methyl-cyclohexyl)-1-(2-trifluoromethyl-imidazo[5,1-b]thiazol-3-yl)-ethanol] | 3810 | 205 |
| CCC1CCCC1C(O)c1c(C2CC2)sc2cncn12 (stereo not drawn) [Example 123, (2-Cyclopropyl-imidazo[5,1-b]thiazol-3-yl)-(2-ethyl-cyclopentyl)-methanol] | 228 | 29.4 |
| OC(c1c(C2CC2)sc2cncn12)C1CC2CCCC2C1 (stereo not drawn) [Example 133, (2-Cyclopropyl-imidazo[5,1-b]thiazol-3-yl)-(octahydro-pentalen-2-yl)-methanol] | 259 | 7.07 |
| OC(CC1CCCC1c1ccccc1)c1c(C2CC2)sc2cncn12 (stereo not drawn) [Example 135, 1-(2-Cyclopropyl-imidazo[5,1-b]thiazol-3-yl)-2-(2-phenyl-cyclopentyl)-ethanol] | 3770 | 139 |
| CC(C)C1(C)CCC(C(O)c2c(C3CC3)sc3cncn23)C1 (stereo not drawn) [Example 136, (2-Cyclopropyl-imidazo[5,1-b]thiazol-3-yl)-(3-isopropyl-3-methyl-cyclopentyl)-methanol] | 579 | 33.2 |
| CC1(C)CCC(C)(C(O)c2c(C3CC3)sc3cncn23)C1 (stereo not drawn) [Example 139, (2-Cyclopropyl-imidazo[5,1-b]thiazol-3-yl)-(1,3,3-trimethyl-cyclopentyl)-methanol] | 151 | 18.7 |
| Cc1sc2cncn2c1[C@@H](O)C1(C)CCCC1 [Example 140a, (S)-(1-Methyl-cyclopentyl)-(2-methyl-imidazo[5,1-b]thiazol-3-yl)-methanol] | 15.8 | 23.9 |
| Cc1sc2cncn2c1C(O)C1CCC(C)(C)C1 (stereo not drawn) [Example 141, (3,3-Dimethyl-cyclopentyl)-(2-methyl-imidazo[5,1-b]thiazol-3-yl)-methanol] | 412 | 81.2 |
| CC[C@H](C)c1sc2cncn2c1C(O)C1CCCCC1 (stereo partly drawn) [Example 185, [2-((S)-sec-Butyl)-imidazo[5,1-b]thiazol-3-yl]-cyclohexyl-methanol] | 962 | 172 |
